Source: US20100226992A1 (ALCON RESEARCH, LTD., priority 2009, published 2010)

Tested on: FGFR
Experiment: Kinase inhibition, cell-free enzymatic assay
Type: biochemical
Settings: 1 mM ATP

IC50: > 12.5 µM
Structure (SMILES): Cc1ccc(F)c(NC(=O)Nc2ccc(-c3cccc4[nH]nc(N)c34)cc2)c1 [RTK Inhibitor, N-[4-(3-amino-1H-indazol-4-yl)phenyl]-N′-(2-fluoro-5-methylphenyl)urea]
